Measured values: patent US8686048B2, “Immunomodulator and anti-inflammatory compounds” (Rhizen Pharmaceuticals SA, priority 2010, dated 2014)

What was measured:
h-DHODH = molecular target: T1, h-DHODH (Homo sapiens, UniProt Q02127); test: Dihydro-orotate dehydrogenase inhibition assay (U937 membrane preparations, DCIP reduction); format: biochemical; conditions: U937 membrane preparation; for inhibition at 0.3 µM: compound tested at 0.3 uM (footnote *)
T1 construct: endogenous in cells; host or cells: U937 cells (membrane fraction, solubilised with 1% octyl glucoside)
T1 sequence (Q02127 whole entry): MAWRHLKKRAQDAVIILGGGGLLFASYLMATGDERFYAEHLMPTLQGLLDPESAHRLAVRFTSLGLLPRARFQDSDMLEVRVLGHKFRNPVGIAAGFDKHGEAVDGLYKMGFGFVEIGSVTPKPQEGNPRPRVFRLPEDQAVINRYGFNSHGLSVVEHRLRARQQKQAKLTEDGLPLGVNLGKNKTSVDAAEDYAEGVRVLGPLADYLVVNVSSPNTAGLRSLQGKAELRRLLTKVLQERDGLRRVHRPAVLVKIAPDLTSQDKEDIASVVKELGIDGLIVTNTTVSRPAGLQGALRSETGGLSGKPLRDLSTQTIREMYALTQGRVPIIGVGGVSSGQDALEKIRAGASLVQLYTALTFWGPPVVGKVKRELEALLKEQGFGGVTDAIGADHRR
How it was run: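 Detergent (1% octyl glucoside) extract of U937 cell membranes; dihydro-orotate-driven DCIP reduction followed as absorbance change at 600 nm after 4 h at 37° C. IC50 derived from percent inhibition of […].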

IL-17 = test: Inhibition of IL-17 release from mouse splenocytes (PMA + ionomycin, ELISA); format: cell-based, Balb/c mice; conditions: Splenocyte, 3 h
How it was run: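 Balb/c splenocytes (1×10^6 cells/ml, RPMI) were pretreated with inhibitor for 15 min, then stimulated with 10 ng/ml PMA plus 1 μM ionomycin. Supernatant IL-17 was measured by ELISA after 3 h. IC50 was derived from percent inhibition relative to control.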

IL17 = test: Inhibition of PHA induced cytokine (IL17) release in PBMC; format: cell-based; conditions: Homo sapiens, 48 h, ELISA
Procedure: b. Inhibition of PHA Induced Cytokine (IL17) Release:
(§1) PBMC from freshly collected HWB were isolated by density gradient using Histopaque and seeded in a 96-well plate. Wells were incubated with desired concentrations of the inhibitor for 15 min. Proliferation was induced by the addition of 2 μM Phytohemagglutinin at 37° C. in an atmosphere containing 95% CO2. Supernatant was collected after 48 h for estimation of cytokines by ELISA. Data were analyzed using GraphPad Prism. Percent inhibition and IC50 values for each compound were determined based on the percent inhibition due to the test compound compared to the control.

[1] = Single dose oral hepatotoxicity assay; format: in vivo, BALB/cJ mice; conditions: serum, 24 hr after 100 mg/kg po single dose, mice
Procedure: 5. Single Dose Oral Hepatotoxicity Assay:
BALB/cJ (n=4 or 5/sex) mice aged 8 to 10 weeks, with weights ranging from 18 to 25 g were used. They were housed under conditions of controlled temperature and humidity and a 12-h light/dark cycle. They were given continuous access to bottled spring water and fed a standard chow at ad libitum. The mice were allowed to acclimate for 1 week before use. On the day of experiment mice were fasted overnight for 12 h and administered with test item formulation (100 mg/kg·b·wt/po) or vehicle (10 ml/kg·b·wt/po) by oral route and food was given 4 hr after test item administration. After 24 hr post administration blood samples were collected from orbital sinus of all the animals and serum was separated to assess the hepatotoxicity. Biochemical evaluation of liver function was determined by measuring serum enzyme activities of alanine aminotransferase (ALT) and aspartate aminotransferase (AST) using commercially available kits from Sigma (St. Louis, Mo.).

PBMC = test: Inhibition of PHA induced PBMC proliferation (MTT); format: cell-based; conditions: Homo sapiens, 48 h
Procedure: a. Inhibition of PHA Induced PBMC Proliferation:
as §1, with “HWB was” for “HWB were”, “[…]. Viability” for “CO2. Supernatant”, “was determined” for “was collected”, “h using an 3-(4,5-Dimethylthiazol-2-yl)-2,5-diphenyltetrazolium bromide (MTT) assay.” for “h for estimation of cytokines by ELISA.”, “Prism. percent” for “Prism. Percent”, “inhibition and/or GI50” for “inhibition and IC50”

CD4+ cell [2] = test: Inhibition of PHA induced CD4+ cell proliferation in PBMC; format: cell-based; conditions: Homo sapiens, isolated PBMC, 48 h, flow cytometry
Procedure: d. Inhibition of PHA Induced CD4+ Cell Proliferation in PBMC:
(§2) Isolated PBMC were treated with desired concentration of inhibitor and induced with 5 μM PHA. % CD4+ cell viability was determined after 48 h by flow cytometry. Data were analyzed using GraphPad Prism. IC50 values for each compound were determined based on the percent inhibition due to the test compound compared to the control.

CD4+ cell [3] = test: Inhibition of PHA induced CD4+ cell proliferation in human whole blood; format: cell-based; conditions: 48 h, flow cytometry
Procedure: c. Inhibition of PHA Induced CD4+ Cell Proliferation in Human Whole Blood:
as §2, with “HWB or” for “Isolated PBMC”, “Prism. Percent inhibition and” for “Prism.”

IL-17 secreting cells = test: Determination of IL-17 producing cells by flow cytometry in PBMC; format: cell-based; conditions: human PBMC, Cytostim, 4 h, read-out: inhibition of IL17 (IL-17 secreting cells normalized to total CD4+ cells)
Procedure: 3. Determination of IL-17 Producing Cells by Flow Cytometry:
PBMC isolated from human blood were stimulated and treated with desired concentrations of the test compounds prior to stimulation with Cytostim (Milteny Biotech, Germany). After 4 h, IL-17 secreting cells were stained using the IL-17 secretion assay kit as per the manufacturer's instruction and normalized to total CD4+ cells within the PBMC population. Data were analyzed using Graph pad prism.

[4] = patients; cited from earlier work
HIV = conditions: at a concentration that can be obtained with conventional dosing; cited from earlier work

inhibition at 1 µM (h-DHODH)	IC50 (h-DHODH)	melting point	IC50 (IL-17)	inhibition at 0.3 µM (h-DHODH)	Compound	inhibition at 10 µM (IL-17)	inhibition at 10 µM (IL17)	ALT [1]	AST [1]	inhibition at 10 µM (PBMC)	inhibition at 1 µM (CD4+ cell [2])	inhibition at 1 µM (CD4+ cell [3])	inhibition at 1 µM (IL-17 secreting cells)	half-life time [4]	reduction of HIV replication (HIV)
85.7%	0.0498 µM	136 to 141 °C			CCOc1cccc(-c2cc(F)c(NC(=O)c3ccccc3C(=O)O)c(F)c2)c1 [Example 5, 2-(3′-Ethoxy-3,5-difluorobiphenyl-4-ylcarbamoyl)benzoic acid]	30.8%	> 50%	113.6 U/L	137.8 U/L						
82.2%	0.0446 µM	144 to 148 °C			CCCOc1cccc(-c2cc(F)c(NC(=O)c3ccccc3C(=O)O)c(Cl)c2)c1 [Example 19, 2-(3-Chloro-5-fluoro-3′-propoxybiphenyl-4-ylcarbamoyl)benzoic acid]	19%		87.9 U/L	126.5 U/L						
76.9%	0.024 µM	122 to 126 °C			O=C(O)c1ccccc1C(=O)Nc1c(F)cc(-c2cccc(OC3CCCC3)c2)cc1Cl [Example 42, 2-(3-Chloro-3′-(cyclopentyloxy)-5-fluorobiphenyl-4-ylcarbamoyl)benzoic acid]	22.3%		113 U/L	189.6 U/L	> 70%					
	0.00152 µM	157.9 to 160.9 °C	32.9 µM	100%	CCc1c[nH]c2ccc(-c3cc(F)c(NC(=O)c4ccccc4C(=O)O)c(F)c3)cc12 [Example 75, 2-[4-(3-ethyl-1H-indol-5-yl)-2,6-difluorophenylcarbamoyl]benzoic acid]	29.4%		93.9 U/L	210.8 U/L	> 70%	> 90%	> 65%			

Second part, the molecule before the results:

Compound	inhibition at 1 µM (h-DHODH)	IC50 (h-DHODH)	melting point	IC50 (IL-17)	inhibition at 0.3 µM (h-DHODH)	inhibition at 10 µM (IL-17)	inhibition at 10 µM (IL17)	ALT [1]	AST [1]	inhibition at 10 µM (PBMC)	inhibition at 1 µM (CD4+ cell [2])	inhibition at 1 µM (CD4+ cell [3])	inhibition at 1 µM (IL-17 secreting cells)	half-life time [4]	reduction of HIV replication (HIV)
CCCCOc1cccc(-c2cc(F)c(NC(=O)c3ccccc3C(=O)O)c(Cl)c2)c1 [Example 29, 2-(3′-butoxy-3-chloro-5-fluorobiphenyl-4-ylcarbamoyl)benzoic acid]	94%	0.00793 µM	128 to 130 °C	18.8 µM		46.1%		67.9 U/L	114.4 U/L	> 70%	> 90%	> 65%	43.6%		
CC(C)COc1cccc(-c2cc(F)c(NC(=O)c3ccccc3C(=O)O)c(Cl)c2)c1 [Example 31, 2-(3-Chloro-5-fluoro-3′-isobutoxybiphenyl-4-ylcarbamoyl)benzoic acid]	73.5%	0.0446 µM	202 to 205.5 °C			21.1%		65.1 U/L	161.4 U/L						
CCCCOc1cccc(-c2cc(F)c(NC(=O)c3ccccc3C(=O)O)c(F)c2)c1 [Example 35, 2-(3′-Butoxy-3,5-difluorobiphenyl-4-ylcarbamoyl)benzoic acid]	86.5%	0.0119 µM	119.3 to 123.3 °C			7.76%		108.3 U/L	172 U/L						
CCOc1cccc(-c2ccc(NC(=O)c3ccccc3C(=O)O)cc2)c1 [Example 70, 2-(3′-ethoxybiphenyl-4-ylcarbamoyl)benzoic acid]	14%			9.11 µM		48.4%		84 U/L	210.4 U/L						
O=C(O)c1ccccc1C(=O)Nc1ccc(-c2cccc(OC(F)(F)F)c2)cc1 [Example 88, 2-[3′-(trifluoromethoxy)biphenyl-4-ylcarbamoyl]benzoic acid]			154.4 to 158.5 °C		62.2%	19.1%									
CCc1cccc(-c2ccc(NC(=O)c3ccccc3C(=O)O)cc2)c1 [Example 90, 2-(3′-ethylbiphenyl-4-ylcarbamoyl)benzoic acid]	29.4%		178 to 182 °C			22.4%									
Cc1oncc1C(=O)Nc1ccc(C(F)(F)F)cc1 [leflunomide, Leflunomide]														approximately 2 weeks	about 75%
